Common to all, as to type: ADME
Series [1] in a line: Kinetic constant for the Val91Tyr (39-A11).
A short description of series [2]: Kinetic constant for the SerL91Val (germline).
Series [3] can be described thus: Kinetic constant for the 39-A11 antibody.
Series [4] can be described thus: Kinetic constant for the germline antibody.

We go through 2 compounds from ChEMBL document CHEMBL1131759, “A mutational study of a Diels-Alderase catalytic antibody” (Bioorg Med Chem Lett, 1999).

With `C=C/C=C/NC(=O)OCC(=O)O`, the Km was 2.1 mM in series [1], 1200 µM in series [2], 1200 µM in series [3] and 1400 µM in series [4].

For `CC(=O)Nc1ccc(N2C(=O)C=CC2=O)cc1`, the Michaelis constant (Km) stood at 0.42 mM in series [1], 740 µM in series [2], 740 µM in series [3] and 450 µM in series [4].
